# Reference: publication PMC7915353, “Magnolol and Honokiol: Two Natural Compounds with Similar Chemical Structure but Different Physicochemical and Stability Properties” (Pharmaceutics, 2021)
# Like-named read-outs stand apart in the source and are kept apart here.
# Experiments:
# [1] = computer program; cited from earlier work
# [2] = Octanol-water distribution coefficients; format: physicochemical
# Description: Octanol–water distribution coefficients (Do/w) of magnolol and honokiol were determined by dissolving each compound in n-octanol, previously saturated with buffer (pH 1.2, 4.5, 6.8, and 7.4) or water, using glass vials. Buffers and water saturated with n-octanol were added to the corresponding vials, which were stirred for approximately 12 h at room temperature. Thereafter, the organic and the aqueous phases were separated by centrifuging the contents of the vials (2 min at 8000× g), and the concentration of each compound in both phases was determined by HPLC. The distribution coefficient was obtained as the quotient of the concentrations in the n-octanol and aqueous phases.
# [3] = Solubility at different pH values at 37 °C, shake-flask; format: physicochemical; conditions: for solubility at 24 h: 37 °C, thermodynamic from solid
# Description: (§1) The aqueous solubility was evaluated using the shake-flask method. Briefly, approximately 40 mg of magnolol or honokiol were added to a volume of 10 mL of distilled water. The mixture was kept in constant agitation for a total period of 24–48 h. Samples were taken at 24 and 48 h, centrifuged for 2 min at 10× g, and the concentration of the dissolved compound was determined in the supernatant using the analytical method described above. The 48-h sample was used to confirm that a dissolution equilibrium had been reached after 24 h of agitation.
# Solubility at different pH values (1.2, 4.5, 6.8, 7.4, 8, 9, and 10) was determined at 37 °C after 24 h of agitation. The composition of the solutions is described in USP 35 [33] and the European Pharmacopeia 7.0 [34]. Briefly, the pH 1.2 solution was prepared with diluted hydrochloric acid, the solutions with pH values from 4.5 to 7.4 were phosphate buffers, and the solutions with pH 9 and 10 were borate buffers. Additionally, two pH 8 solutions were prepared using phosphate and borate buffers.
# [4] = Solubility in water, shake-flask method; format: physicochemical
# Description: as §1
# [5] = Stability at room temperature and 37 °C, 30 days, different pH; format: physicochemical; conditions: one month
# Description: The stability was also evaluated at room temperature and 37 °C (pH 1.2, 4.5, 6.8, 7.4, 8, 9, and 10) after an incubation period of 30 days.
# [6] = pKa, graphical estimation from solubility-pH data; format: physicochemical
# Excerpt: Among the components of Magnolia officinalis extracts with pharmacological activity, the most relevant are magnolol and honokiol. These natural compounds have attracted great interest in recent years for their potential therapeutic applications. However, a limitation in the use of magnolol and honokiol is their poor water solubility, which can greatly restrict gastrointestinal absorption and bioavailability. The water solubilities of magnolol and honokiol at room temperature obtained in this work were 12.5 and 50.6 µg/mL, respectively. However, the solubility of both compounds can be affected by the medium pH, since their molecules contain phenolic groups that can be ionized at alkaline pH values. […] Using the obtained solubility–pH data, the pKa of magnolol can be estimated from the intersection of the straight lines corresponding to pH 1.2–6.8 and to pH 7.4–10 in Figure 3 [36]. […] This discrepancy is probably due to the reduced number of values for the second straight line (pH 9 and 10). […] The different solubility values obtained in both studies could be related to the different agitation time, which was shorter in the study of Lee et al. (2 h vs. 24 h). […] In the case of honokiol, no data about its solubility at different pH values have been found in the available literature. […] Again, the discrepancy in these values could be related to the agitation time (4 h vs. 24 h).
# [7] = cited from earlier work
# [8] = Forced-degradation at 60 °C, different pH values; format: physicochemical; conditions: 24 h, 0.1 M HCl, 0.1 M NaOH, buffers pH 7.4-10
# Description: The stability of both natural products was evaluated in forced conditions at 60 °C using different pH values. Magnolol and honokiol solutions were prepared in 0.1 M HCl, 0.1 M NaOH, and buffers (pH 7.4, 8, 9, and 10). These solutions were kept at 60 °C for 24 h and the concentration of remaining magnolol and honokiol was determined.
# [9] = Stability under oxidizing conditions (3% H2O2); format: physicochemical; conditions: 3% hydrogen peroxide, 24 h, room temperature, 37 °C and 60 °C
# Description: Additionally, stability was examined under oxidizing conditions using 3% H2O2. These samples were kept at room temperature, 37 °C, and 60 °C, for 24 h. The concentration of samples was expressed as a percentage of the initial concentration.
# [10] = cited from earlier work; remark: listed apart in the source
smiles,measurement,setting,value
"C=CCc1ccc(O)c(-c2ccc(O)c(CC=C)c2)c1 [Honokiol, 3,5′-diallyl-4,2′-dihydroxybiphenyl]","log Po/w, theoretical estimation",[1],4.20
same,logP,[2]; Log Do/w,4.27 ± 0.06
same,logP,[2]; log Po/w,~4.5
same,logD,[2]; pH 1.2,4.48 ± 0.05
same,logD,[2]; pH 4.5,4.5 ± 0.08
same,logD,[2]; pH 6.8,4.48 ± 0.04
same,logD,[2]; pH 7.4,4.28 ± 0.05
same,solubility at 24 h,"[3]; pH 10, aqueous buffer",~220 µg/mL
same,solubility at 24 h,[3],~75 µg/mL
same,solubility at 24 h,[4],50.6 ± 1.2 µg/mL
same,Degradation,"[5]; pH 4.5 and 6.8, 37 °C",a decrease in the initial concentration was detected
same,"Concentration, percentage of the initial concentration","[5]; pH 7.4, 37 °C",29%
same,"Concentration, percentage of the initial concentration","[5]; pH 7.4, room temperature",84%
same,Degradation,"[5]; pH values lower than 7.4, room temperature",no degradation
same,pKa,[6],8.5
"C=CCc1ccc(O)c(-c2cc(CC=C)ccc2O)c1 [Magnolol, 5, 5′-diallyl-2, 2′-dihydroxybiphenyl]",Solubility,"[7]; pH 1.2, 2 h of agitation",3.25 µg/mL
same,Solubility,"[7]; pH 3.5, 2 h of agitation",4.95 µg/mL
same,Solubility,"[7]; pH 7.4, 2 h of agitation",0.04 µg/mL
same,"Solubility at pH 7.4 in comparison to pH 1.2, fold lower",[7]; study by Lee et al.,approximately 99 fold
same,"log Po/w, theoretical estimation",[1],3.94
same,Stability at different pH values,[8],relatively stable
same,logP,"[2]; aqueous phase H2O, n-octanol, room temperature, mean ± SD, n = 4, read-out: Log Do/w",4.07 ± 0.09
same,logD,"[2]; aqueous phase pH 1.2, n-octanol, room temperature, mean ± SD, n = 4, read-out: Log Do/w",4.5 ± 0.1
same,logD,"[2]; aqueous phase pH 4.5, n-octanol, room temperature, mean ± SD, n = 4, read-out: Log Do/w",4.55 ± 0.11
same,logD,"[2]; aqueous phase pH 6.8, n-octanol, room temperature, mean ± SD, n = 4, read-out: Log Do/w",4.48 ± 0.06
same,logD,"[2]; aqueous phase pH 7.4, n-octanol, room temperature, mean ± SD, n = 4, read-out: Log Do/w",4.3 ± 0.08
same,logP,"[2]; from log Do/w values at the acidic pHs, read-out: log Po/w",~4.5
same,Stability under oxidizing conditions,[9],degradation increased with the temperature
same,solubility at 24 h,"[3]; pH 1.2, simulated gastric fluid, pH 1.2, 37 °C, 24 h agitation, read-out: Solubility",14.8 µg/mL
same,solubility at 24 h,"[3]; pH 7.4, aqueous buffer, pH 7.4, 37 °C, 24 h agitation, read-out: Solubility",30.5 µg/mL
same,solubility at 24 h,"[3]; pH 8, aqueous buffer, pH 8 borate buffer, read-out: Solubility",138 µg/mL
same,solubility at 24 h,"[3]; pH 8, aqueous buffer, pH 8 phosphate buffer, read-out: Solubility",76 µg/mL
same,solubility at 24 h,"[3]; pH 10, aqueous buffer, pH 10, 37 °C, read-out: Solubility",~2700 µg/mL
same,solubility at 24 h,"[3]; pH values lower than 7.4, 37 °C, 24 h agitation, read-out: Solubility",~16 µg/mL
same,"Solubility at pH 7.4 in comparison to pH 1.2, fold higher",[3]; present study,~2 fold
same,solubility at 24 h,"[4]; water, room temperature, preliminary solubility test, read-out: Solubility in water",12.5 ± 0.6 µg/mL
same,pKa,"[6]; intersection of straight lines of solubility-pH profile (Figure 3), read-out: pKa, graphical estimation",7.2
same,pKa (first value),[10],7.10
same,pKa (second value),[10],10.58
